According to article PMC3940307 (ACS medicinal chemistry letters, 2013):
Entries after “also recorded” stand apart in the source; their conditions may differ. One block for each compound: values may come before it.

Assays:
NTR1 [1] = molecular target: T1, NTR1 (Homo sapiens, UniProt P30989); test: NTR1 Ca2+ Flux assay; format: cell-based
NTR1 [2] = molecular target: T1, NTR1; test: NTR1 HCS primary assay; format: cell-based; details: for loss in potency compared to 32: NTR1 HCS EC50 relative to compound 32
[3] = system: GPR55, APJ, k-opiod, CCR6, and CXCR6; test: Functional high content or β-arrestin based GPCR screens; format: cell-based; details: result in words
[4] = system: adrenergic receptors (α1a, α1B, α1D, α2A); test: Panlabs/Ricerca lead profiling panel; format: binding; details: at 10 μM, range across α1a
[5] = system: Fa2N-4 Immortalized Human Hepatocytes; test: Toxicity towards hepatocytes; format: cell-based; details: LC50 towards human hepatocytes versus NTR1 potency
[6] = NTR1 HCS EC50 relative to compound 5

T1 sequence (P30989 whole entry): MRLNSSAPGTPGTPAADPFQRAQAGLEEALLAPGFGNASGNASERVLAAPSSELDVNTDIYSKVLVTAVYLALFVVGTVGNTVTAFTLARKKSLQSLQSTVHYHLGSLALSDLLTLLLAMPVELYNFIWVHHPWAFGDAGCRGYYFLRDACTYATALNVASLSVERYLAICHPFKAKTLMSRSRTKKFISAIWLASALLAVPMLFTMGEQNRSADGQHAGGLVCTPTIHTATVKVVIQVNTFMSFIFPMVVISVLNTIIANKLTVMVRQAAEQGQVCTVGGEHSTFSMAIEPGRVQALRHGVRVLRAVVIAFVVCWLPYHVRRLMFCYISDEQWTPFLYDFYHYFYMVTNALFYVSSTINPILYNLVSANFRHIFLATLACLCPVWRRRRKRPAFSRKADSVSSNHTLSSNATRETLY

Compound: COc1cccc(OC)c1-c1cc(C(=O)N[C@@H](CC(C)C)C(=O)O)nn1-c1ccnc2cc(Cl)ccc12 [Compound 2, reference compound]
EC50 (NTR1 [1]; NTR1 Ca2+ flux assay): < 156 nM

Compound: COc1cc2nc(C3CCC3)nc(N3CCN(c4ccccn4)CC3)c2cc1OC [Compound 18]
loss of potency compared to 5 (NTR1 [2]; [6]): > 6 fold

Compound: COc1cc2nc(C3CC3)nc(N3CCN(c4ccccc4OC)CC3)c2cc1OC [Compound 32, 2-cyclopropyl-6,7-dimethoxy-4-(4-(2-methoxyphenyl)-piperazin-1-yl)quinazoline]
cross reactivity [3]: no cross reactivity
response in Ca2+ mobilization / flux assay (NTR1 [1]; result in words): no significant response; also recorded: no significant activity
improvement in activity over 5 (NTR1 [2]; [6]): 3 fold
binding [4]: 63-100%
window for toxicity [5]: > 15 fold

Compound: COc1ccccc1N1CCN(c2nc(C3CCC3)nc3cc4c(cc23)OCO4)CC1 [Compound 40]
loss of potency compared to 5 (NTR1 [2]; [6]): over 6 fold

Compound: COc1cc2nc(C3CC3)nc(N3CCN(c4ccccc4Cl)CC3)c2cc1OC [Compound 43]
loss in potency compared to 32 (NTR1 [2]): 3-10 fold

Continued, values first:

loss of potency compared to 5 (NTR1 [2]; [6]): > 6 fold
Compound: CCOc1cc2c(N3CCN(c4ccccc4[N+](=O)[O-])CC3)nc(-c3ccccc3)nc2cc1OC [Compound 19]

loss of potency compared to 5 (NTR1 [2]; [6]): 4-6 fold
Compound: COc1ccc2c(N3CCN(c4ccccc4OC)CC3)nc(C3CCC3)nc2c1 [Compound 38]

loss of potency compared to 5 (NTR1 [2]; [6]): 4-6 fold
Compound: COc1ccccc1N1CCN(c2nc(C3CCC3)nc3ccccc23)CC1 [Compound 39]

loss in potency compared to 32 (NTR1 [2]): 3-10 fold
Compound: CCOc1ccccc1N1CCN(c2nc(C3CC3)nc3cc(OC)c(OC)cc23)CC1 [Compound 42]
